Laboratory results: patent EP4371976B1, “IONIZABLE LIPIDS AND LIPID NANOPARTICLES CONTAINING THEREOF” (Certest Biotec, S.L., priority 2022, dated 2024)

Key:
Female BALB/c mice = test: Firefly luciferase expression (total flux, IVIS imaging) in mice after injection of mRNA-loaded LNPs; assay type: in vivo; details: for Total Flux: Table 8, intramuscular, 5 µg luciferase mRNA in 50 µl, LNP 50:10:38.5:1.5; for protein expression in mice (transfection results): Figure 1 legend, LNPs containing RNA
Description: For in vivo administration, mRNA comprising in the 5' to 3' direction a sequence encoding for luciferase of SEQ ID NO:1, was encapsulated into LNPs following the procedure described in Hassett, K. J. et al., "Optimization of Lipid Nanoparticles for Intramuscular Administration of mRNA Vaccines", 2019, Mol. Ther. Nucleic Acid, vol. 15, pp. 1-11. Briefly, the purified mRNAs were first diluted in sodium citrate buffer at pH=4 at a final concentration of 266 µg/ml. Separately, a mixture of the ionizable lipid of the invention:DSPC (Merk 850365P):cholesterol (Sigma C3045):DMG-PEG2000 (Cayman 33945-1) were dissolved into ethanol at the respective molar percentages of 50:10:38.5:1.5, and with a lipid-nitrogen-to-phosphate ratio (N:P) ratio of 5,5:1.
The mRNA aqueous solution was then carefully added to the ethanol solution, and the resulted solution was homogenized by pipetting up and down for 4-5 times. The resulting LNPs were immediately diluted 1:1 with Tris buffer and dialyzed overnight against Tris buffer containing 15% sucrose. The resulting LNP solution was then collected, and the encapsulated mRNA was assessed by Quant-IT® Ribogreen (Invitrogen R11490) following the manufacturer's instructions.
Female BALB/c mice (Charles River Laboratories), 8-10-week-old, weighting 18-23 g, were acclimatized to new conditions upon arrival to experimental facilities for 3-7 days. Housing conditions were room temperature 20-24 °C, humidity 50-70 %, and light intensity 60 lux with a light-dark cycle of 12 hours.
For Firefly Luciferase activity measurement in mice, LNPs produced as indicated above (ionizable lipid:helper lipid: sterol:PEG-modified lipid → 50:10:38.5:1.5) and containing 5 µg of the indicated mRNA in 50 µl final volume, were injected intramuscularly.
From 4 to 72 hours after RNA-LPN inoculation mice were anaesthetized by inhalation with 4% of isoflurane using a vaporizer. The maintenance of the anaesthesia was performed at 1.5% of isoflurane. Then, D-luciferin (Quimigen, 12507) was injected intraperitoneally at 150 mg/kg, normally ~200 µL of the stock at 15 mg/mL in PBS for a 20 g mouse. Luciferase images were acquired 10 minutes after luciferin inoculation using the IVIS Lumina XRMS Imaging System following manufacturer's instructions.

[1] = RNA encapsulation efficiency of LNPs by Quant-IT Ribogreen; assay type: physicochemical; details: for Encaps. efficiency (%): LNPs with luciferase mRNA, ionizable lipid:non-cationic lipid:sterol:PEG-modified lipid 50:10:38.5:1.5, percentage of RNA entrapped in the LNP; for Encaps. efficiency: Table 8, LNP 50:10:38.5:1.5, luciferase mRNA
Procedure, shortened: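 LNPs formed by mixing aqueous mRNA into ethanol lipid solution, diluted 1:1 in Tris, dialysed overnight against Tris with 15% sucrose. Encapsulated mRNA measured by Ribogreen fluorescence per kit protocol; LNPs adjusted to 100 µg/ml final mRNA.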

[2] = Size distribution, polydispersity and Z-potential of LNPs by dynamic light scattering (Malvern Zetasizer); assay type: physicochemical
Description: The LNP solution was then adjusted to a final concentration of mRNA of 100 µg/ml. Size distribution, polydispersity and Z-potential were measured by dynamic light scattering (DLS) using Malvern Zetasizer Advance Lab Blue Label. RNA encapsulation was assessed by Quant-IT® Ribogreen following the manufacturer's instructions.

[3] = Apparent pKa of LNPs comprising the ionizable lipid (Table 6); details: standard formulation 50:10:38.5:1.5
[4] = LNPs, standard formulation 50:10:38.5:1.5, DLS
[5] = Table 10, VC-LC-0431:DOPE:Cholesterol:DMG-PEG2000 50:10:38.5:1.5

Compound | Total Flux (Female BALB/c mice; mice) [p·s^-1] | Encaps. efficiency (%) [1] [%] | Encaps. efficiency [1] [%] | P.D.I. [2, 4] | Particle size/ Ø (nm) [2, 4] [nm] | Z Potential (± D.E.) [mV] [2, 4] [mV] | Apparent pKa [3] | Total flux (p·s^-1) (Female BALB/c mice; Table 10, mice, VC-LC-0431:DOPE:Cholesterol:DMG-PEG2000 50:10:38.5:1.5) | Encapsulation efficiency (%) [1, 5] [%] | P.D.I. [2, 5] | Particle size/ Ø (nm) [2, 5] | Z Potential (± D.E.) [mV] [2, 5] [mV] | protein expression in mice (transfection results) (Female BALB/c mice)
CCCCCCCCOC(=O)CCSCC(CC(=O)NCCCn1ccnc1)C(=O)OC(CCCCCCCC)CCCCCCCC (stereo not shown) [VC-LC-0307] | 1.47E+08 | 43.89 | 43.9 | 0.14 | 178 | -15.15 | 6.11 | – | – | – | – | – | –
CCCCCCCCC(CCCCCC)COC(=O)CCSCCC(NC(=O)C(CCCCCC)CCCCCCCC)C(=O)NC1CCN(C)CC1 (stereo not shown) [VC-LC-0431] | 9.92E+07 | 60.4 | 60.4 | 0.11 | 196.6 | -0.28 | 5.77 | 9.92E+07 | 60.4 | 0.114 | 196,6 nm | -0.281 | –
CCCCCCCCCCCCCCCCCCCCCCOC(=O)CCSCC(CC(=O)NCCCN1CCOCC1)C(=O)OC(CCCCCCCC)CCCCCCCC (stereo not shown) [VC-LC-0549] | 2.5E+07 | 36.38 | 36.38 | 0.27 | 194.9 | -16.95 | – | – | – | – | – | – | –
CCCCCCCC#CCOC(=O)CCSCCC(C(=O)NC1CCN(C)CC1)C(=O)OC(CCCCCCCC)CCCCCCCC (stereo not shown) [VC-LC-0442] | 2.95E+07 | 87.80 | 87.8 | 0.12 | 171.8 | -4.19 | – | – | – | – | – | – | –
CCCCCCCCCCCCC(CCCCCCCCCC)COC(=O)CCSCCC(NC(=O)C(CCCCCCCC)CCCCCCCCCC)C(=O)NCC1CCN(C)CC1 (stereo not shown) [VC-LC-0521] | 1.1E+08 | 52.01 | 52.01 | 0.071 | 153.1 | -4.50 | – | – | – | – | – | – | –
CCCCCCCC/C=C\CCCCCCCCOC(=O)CCSCCC(NC(=O)CCCCCCC/C=C\CCCCCCCC)C(=O)NCCCN1CCOCC1 (stereo not shown) [VC-LC-0355] | 2.39E+07 | 81.58 | 81.6 | 0.3 | 242.2 | -4.71 | – | – | – | – | – | – | good transfection results
CCCCCCCCCCC(CCCCCCCC)C(=O)NC(CCSCCC(=O)OCC(CCCCCC)CCCCCCCC)C(=O)NC1CCN(C)CC1 (stereo not shown) [VC-LC-0557] | 4.3E+07 | 77.19 | 77.2 | 0.11 | 142.5 | -6.12 | – | – | – | – | – | – | –
CCCCCCCCC(CCCCCC)COC(=O)CCSCCC(C(=O)NC1CCN(C)CC1)C(=O)OC(CCCCCCCC)CCCCCCCC (stereo not shown) [VC-LC-0439] | 2.39E+07 | 91.14 | 91.1 | 0.1 | 144.8 | -6.48 | – | – | – | – | – | – | –
CCCCCCCCCCCCC(CCCCCCCCCC)COC(=O)CCSCCC(NC(=O)C(CCCCCC)CCCCCCCC)C(=O)NCCN(CC)CC (stereo not shown) [VC-LC-0487] | 6.9E+07 | 62.43 | 62.43 | 0.17 | 156.3 | -9.59 | – | – | – | – | – | – | –
CCCCCCCCCCCCCCCCCCOC(=O)CCSCC(CC(=O)NCCCN1CCOCC1)C(=O)OC(CCCCCCCC)CCCCCCCC (stereo not shown) [VC-LC-0546] | 2.54E+07 | 39.62 | 39.6 | 0.14 | 164.2 | -10.43 | – | – | – | – | – | – | –
CCCCCCCCCCCCCCCCCCOC(=O)CCSCCC(NC(=O)C(CCCCCC)CCCCCCCC)C(=O)NCCCn1ccnc1 (stereo not shown) [VC-LC-0262] | 7.5E+07 | 33.79 | 33.79 | 0.11 | 143.8 | -10.53 | – | – | – | – | – | – | –
CCCCCCCCC(CCCCCCCC)OC(=O)C(CSCCC(=O)OCCCCCC(C)C)CC(=O)NCCCN1CCOCC1 (stereo not shown) [VC-LC-0548] | 1.2E+08 | 30.22 | 30.22 | 0.17 | 145.5 | -8.82 | – | – | – | – | – | – | –
CCCCCCCCCCCCCCCCCC(=O)NC(CCSCCC(=O)OCC(CCCCCCCCCC)CCCCCCCCCCCC)C(=O)NCCCN1CCOCC1 (stereo not shown) [VC-LC-0389] | – | 76.40 | – | 0.26 | 218 | -9.68 | – | – | – | – | – | – | good transfection results
CCCCCCCCCCCCCCOC(=O)CCSCCC(C(=O)NCCCn1ccnc1)C(=O)OC(CCCCCCCC)CCCCCCCC (stereo not shown) [VC-LC-0367] | 3.16E+07 | 47.47 | 47.5 | 0.19 | 134.6 | -15.48 | – | – | – | – | – | – | –
CCCCCCCCCCCCCCCCCC(=O)NC(CCSCCC(=O)OCCCCCCCCCCCCC)C(=O)NCCCN1CCOCC1 (stereo not shown) [VC-LC-0374] | – | 70.37 | – | 0.16 | 174.7 | -9.62 | – | – | – | – | – | – | good transfection results
CCCCCCCCCCCCCOC(=O)CCSCCC(NC(=O)C(CCCCCC)CCCCCCCC)C(=O)NCC1CCN(C)CC1 (stereo not shown) [VC-LC-0490] | 1.7E+07 | 97.16 | 97.2 | 0.18 | 136.1 | 0.83 | – | – | – | – | – | – | –
CCCCCCCC/C=C\CCCCCCCC(=O)NC(CCSCCC(=O)OCC(CCCCCCCCCC)CCCCCCCCCCCC)C(=O)NCCCN1CCOCC1 (stereo not shown) [VC-LC-0353] | 5.2E+07 | 57.26 | 57.26 | 0.1 | 175.8 | -8.97 | – | – | – | – | – | – | good transfection results
